In brackets after ≈: the same amount, converted by molar mass.
Key:
[1] = test system: C33A cell line; settings: in the concentration ranges tested in the combinations
Description: (§1) Cytotoxicity assays were performed on the C33A cell line (uterine cervical carcinoma epithelium) obtained from the ATCC (Manassas, VA, USA). 5 × 10^4 cells/well were added using RPMI medium with 10% fetal bovine serum into 96-well plates. Cells were incubated at 36.5 °C with 5% CO2 for 24 h to form a cell monolayer. 2-HC and 3′-HC were analyzed in range concentrations from 0.1–75 μg/mL. In combinations, 2-HC and 3′-HC were analyzed from 0.48–31.25 mg/L and 0.48–62.5 mg/L. Cells were exposed for 72 h, and after, cytotoxicity was assessed by adding 100 μL of resazurin (50 μM) and measured by a microplate reader at 570 nm–600 nm. A negative control with untreated cells (100% living cells) and a positive control (DMSO 40% to induce cell death) were also used. The results were evaluated in triplicate independent. […] Selective index (SI) was calculated using SI=IC50/MIC50 .

[2] = test system: Candida tropicalis ATCC 750; experiment: In vitro susceptibility, CLSI M27-A3 broth microdilution (MIC/MFC); type: cell-based; settings: for MFC / MIC50: ATCC750, C. tropicalis ATCC 750; for MIC: ATCC750, C. tropicalis ATCC 750, 37 °C 24 h
Description: (§2) Susceptibility tests were performed according to the M27-A3 protocol proposed by the Clinical & Laboratory Standards Institute (CLSI) (2008). Briefly, 2-HC and 3′-HC were solubilized in dimethyl sulfoxide at 12.500 g/L and stored at −80 °C. […] The final concentration of 2-HC and 3′-HC in the RPMI medium was 0.24–125.0 mg/L. Dilutions of the compounds were performed in a 96-well microplate at a total volume of 100 μL/well. Fungal suspensions were prepared in 0.85% NaCl and were adjusted to a final concentration of 5 × 10^3 cells/mL. Then, 100 μL of the fungal suspension was added to all wells. Microplates were incubated at 37 °C for 24 h. […] Minimal inhibitory concentration (MIC) was considered the lowest concentration of the drug that inhibited the visible growth of yeast. […] Samples were processed in triplicate, and each experiment was carried out in triplicate.

[3] = test system: Candida albicans ATCC 90028; experiment: as above; type: cell-based; settings: for MFC / MIC50: ATCC90028, C. albicans ATCC 90028; for MIC: ATCC90028, C. albicans ATCC 90028, 37 °C 24 h
Description: as §2

[4] = test system: Candida glabrata ATCC 90030; experiment: as above; type: cell-based; settings: Nakaseomyces glabratus, ATCC90030; for MFC: C. glabrata ATCC 90030; for MIC: C. glabrata ATCC 90030, 37 °C 24 h
Description: as §2

[5] = test system: Candida krusei ATCC 6258; experiment: as above; type: cell-based; settings: Pichia kudriavzevii, ATCC6258; for MFC / MIC50: C. krusei ATCC 6258; for MIC: C. krusei ATCC 6258, 37 °C 24 h
Description: as §2

[6] = test system: Candida parapsilosis ATCC 22019; experiment: as above; type: cell-based; settings: Lodderomyces parapsilosis, ATCC22019; for MFC: C. parapsilosis ATCC 22019; for MIC: C. parapsilosis ATCC 22019, 37 °C 24 h
Description: as §2

[7] = test system: Candida tropicalis ATCC 750; experiment: Combinatorial antifungal activity (checkerboard); type: cell-based; settings: drug alone in checkerboard; for MIC80: Candida tropicalis, ATCC750, C. tropicalis, read-out: MIC80 (individual); for MIC80 (individual): C. tropicalis
Excerpt: (§3) Candida albicans ATCC 90028, Candida tropicalis ATCC 750, and Candida krusei ATCC 6258 were used. These species were selected for these assays because C. albicans is the most prevalent etiological agent in fungal infections caused by the genus Candida, and C. tropicalis is the most frequent non-albicans species. C. krusei was used to represent the species most resistant to azole drugs. Thus, 2-HC and 3′-HC were combined with FCZ and CTZ and associated with each other. Their combinatorial antifungal activity was determined through the checkerboard method using 96-well microplates, according to Bellio et al. (2021). […] Microplates were incubated at 37 °C for 24 h. […] The negative control was only the culture medium, and the positive control was composed of microorganisms and the culture medium. […] From this, it was calculated the fractional inhibitory concentration (FIC) and the fractional inhibitory concentration index (FICI) of each well of the interface as follows: […]

[8] = test system: Candida albicans ATCC 90028; experiment: Combinatorial antifungal activity (checkerboard); type: cell-based; settings: ATCC90028, C. albicans, drug alone in checkerboard, read-out: MIC80 (individual)
Excerpt: as §3

[9] = test system: Candida krusei ATCC 6258; experiment: Combinatorial antifungal activity (checkerboard); type: cell-based; settings: Pichia kudriavzevii, ATCC6258; C. krusei, drug alone in checkerboard; read-out: MIC80 (individual)
Excerpt: as §3

[10] = test system: C. albicans ATCC 90028; experiment: Therapeutic efficacy in Galleria mellonella infected with C. albicans; type: in vivo; settings: for efficacy in the antifungal activity: substances alone at MIC values and LCs, infected larvae
[11] = In vitro cytotoxicity (resazurin, 72 h); settings: human
Description: as §1

[12] = test system: C33A cell line (uterine cervical carcinoma epithelium); experiment: In vitro cytotoxicity (resazurin, 72 h); settings: Homo sapiens, C-33-A, 72 h
Description: as §1

[13] = test system: Mycobacterium tuberculosis; design: method as in PMID 34790584; settings: cited from earlier work
[14] = test system: Paracoccidioides brasiliensis; design: method as in PMID 34790584; settings: cited from earlier work
[15] = test system: Mycobacterium tuberculosis and Paracoccidioides brasiliensis mixed biofilm; design: method as in PMID 34790584; settings: cited from earlier work

OC(Cn1cncn1)(Cn1cncn1)c1ccc(F)cc1F [FCZ, Fluconazole, reference compound]
cytotoxicity [1]: did not present cytotoxicity
MFC [2]: > 64 µg/mL
MIC [2]: 0.5 µg/mL (≈ 1.63 µM)
MFC [3]: > 64 µg/mL
MIC [3]: 0.25 µg/mL (≈ 0.816 µM)
MFC [4]: > 64 µg/mL
MIC [4]: 0.5 µg/mL (≈ 1.63 µM)
MFC [5]: 128 µg/mL (≈ 418 µM)
MIC [5]: 32 µg/mL (≈ 104 µM)
MFC [6]: 2 µg/mL (≈ 6.53 µM)
MIC [6]: 1 µg/mL (≈ 3.27 µM)
MIC80 [7]: 0.5 µg/mL
MIC80 [8]: 0.5 µg/mL
MIC80 [9]: 32 µg/mL
health indexes vs infection control group ([10]; larvae infected with C. albicans ATCC 90028, all doses, FCZ 350 mg/L): statistically different from the infection control group
survival curves vs infection control group ([10]; larvae infected with C. albicans ATCC 90028, treated 1 h after infection, five days, FCZ 350 mg/L): statistically different from the infection control group

C[C@@H]1[C@H](O)[C@@H](C)/C=C/C=C/C=C/C=C/C=C/C=C/C=C/[C@H](O[C@@H]2O[C@H](C)[C@@H](O)[C@H](N)[C@@H]2O)C[C@@H]2O[C@](O)(C[C@@H](O)C[C@@H](O)[C@H](O)CC[C@@H](O)C[C@@H](O)CC(=O)O[C@H]1C)C[C@H](O)[C@H]2C(=O)O [AMB, amphotericin B, reference compound]
MFC [2]: 1 µg/mL (≈ 1.08 µM)
MIC [2]: 0.05 µg/mL (≈ 0.0541 µM)
MFC [3]: 1 µg/mL (≈ 1.08 µM)
MIC [3]: 0.2 µg/mL (≈ 0.216 µM)
MFC [4]: 0.5 µg/mL (≈ 0.541 µM)
MIC [4]: 0.4 µg/mL (≈ 0.433 µM)
MFC [5]: 1 µg/mL (≈ 1.08 µM)
MIC [5]: 0.1 µg/mL (≈ 0.108 µM)
MFC [6]: 0.3 µg/mL (≈ 0.325 µM)
MIC [6]: 0.1 µg/mL (≈ 0.108 µM)

O=C(/C=C/c1ccccc1O)c1ccccc1 [2-HC, 2-hydroxychalcone]
MFC [2]: > 125 µg/mL
MIC50 [2]: 7.81 µg/mL (≈ 34.8 µM)
MIC [2]: 31.3 µg/mL (≈ 140 µM)
MFC [3]: > 125 µg/mL
MIC50 [3]: 15.6 µg/mL (≈ 69.7 µM)
MIC [3]: 31.3 µg/mL (≈ 140 µM)
MFC [4]: > 125 µg/mL
MIC [4]: 15.6 µg/mL (≈ 69.6 µM)
MFC [5]: 125 µg/mL (≈ 557 µM)
MIC50 [5]: 15.6 µg/mL (≈ 69.7 µM)
MIC [5]: 7.8 µg/mL (≈ 34.8 µM)
MFC [6]: 15.6 µg/mL (≈ 69.6 µM)
MIC [6]: 7.8 µg/mL (≈ 34.8 µM)
viability at 72 h, 9.38 mg/L [11]: > 80%
IC50 [12]: 13 µg/mL
MIC80 (individual) [7]: 31.25 mg/L
MIC80 [7]: 62.5 µg/mL
MIC80 [8]: 31.2 µg/mL
MIC80 [9]: 31.2 µg/mL
efficacy in the antifungal activity [10]: did not demonstrate efficacy

O=C(/C=C/c1ccccc1)c1cccc(O)c1 [3′-HC, 3′-hydroxychalcone]
MIC [13]: 7.8 mg/L (≈ 34.8 µM)
MFC [2]: 125 µg/mL (≈ 557 µM)
MIC50 [2]: 7.81 µg/mL (≈ 34.8 µM)
MIC [2]: 31.3 µg/mL (≈ 140 µM)
MFC [3]: > 125 µg/mL
MIC50 [3]: 15.6 µg/mL (≈ 69.7 µM)
MIC [3]: 31.3 µg/mL (≈ 140 µM)
MFC [4]: 31.3 µg/mL (≈ 140 µM)
MIC [4]: 7.8 µg/mL (≈ 34.8 µM)
MFC [5]: 31.3 µg/mL (≈ 140 µM)
MIC50 [5]: 7.81 µg/mL (≈ 34.8 µM)
MIC [5]: 7.8 µg/mL (≈ 34.8 µM)
MFC [6]: 31.3 µg/mL (≈ 140 µM)
MIC [6]: 15.6 µg/mL (≈ 69.6 µM)
viability at 72 h, 9.38 mg/L [11]: > 80%
IC50 [12]: 11.9 µg/mL
MIC80 (individual) [7]: 31.25 mg/L
MIC80 [7]: 62.5 µg/mL
MIC80 [8]: 31.2 µg/mL
MIC80 [9]: 15.6 µg/mL
efficacy in the antifungal activity [10]: did not demonstrate efficacy
MIC [14]: 0.97 mg/L (≈ 4.33 µM)
biofilm degradation [15]: above 50%

Clc1ccccc1C(c1ccccc1)(c1ccccc1)n1ccnc1 [CTZ, clotrimazole, reference compound]
cytotoxicity [1]: did not present cytotoxicity
MFC [2]: > 4 µg/mL
MIC [2]: 0.01 µg/mL (≈ 0.029 µM)
MFC [3]: > 4 µg/mL
MIC [3]: 0.01 µg/mL (≈ 0.029 µM)
MFC [4]: > 2 µg/mL
MIC [4]: 0.004 µg/mL (≈ 0.0116 µM)
MFC [5]: > 4 µg/mL
MIC [5]: 0.06 µg/mL (≈ 0.174 µM)
MFC [6]: 0.1 µg/mL (≈ 0.29 µM)
MIC [6]: 0.03 µg/mL (≈ 0.087 µM)
MIC80 [7]: 0.03 µg/mL
MIC80 [8]: 0.03 µg/mL
MIC80 [9]: 0.13 µg/mL
